Patent US11666558B2, “Methods of treating intraocular pressure with activators of Tie-2” (EyePoint Pharmaceuticals, Inc., priority 2015, dated 2023)
“And” between values parts separate entries of the source, which are not always exact repeats. Equal values may be shown once. Where a name gives a salt, the structure may show the parent alone.

Tested on: intraocular pressure
Test: Intraocular pressure (pneumotonometer) after repeated topical and subcutaneous administration in normotensive rabbits
Assay type: in vivo, New Zealand White rabbits
Procedure: To measure the tolerability and effect of Compound 1 (sodium salt) on intraocular pressure following repeated topical and subcutaneous administration, normotensive New Zealand White rabbits were treated with Compound 1 (sodium salt). Animals were acclimated 1 to 2 times per day to the intraocular pressure (IOP) measurement procedures prior to initiation of the study to determine baseline IOP levels. IOP acclimation was performed in the two weeks prior to study start for a total of 5 days. Animals with unacceptable IOP values were excluded from the study. Prior to taking all IOP measurements, 1 to 2 drops of a 0.5% proparacaine solution were applied to the eye as a topical anesthetic. OP measurements were performed with a pneumotonometer. Test and control formulations were administered to the animals once or twice daily topically into both eyes or subcutaneously starting on Day 1 according to TABLE 20 and TABLE 21 below. PM dosing, where applicable, was performed ˜8 hours after AM dosing. IOP measurements were performed twice (AM and PM) at baseline (prior to the start of dosing), twice (AM and PM) on Days 1 and 7, and once daily (AM) on Days 2-6 and Day 8. Prior to taking all IOP measurements, 1 to 2 drops of a 0.5% proparacaine solution were applied to the eye as a topical anesthetic. IOP measurements were performed with a pneumotonometer. AM IOP measurements were performed 2 hours after AM dosing; the only exceptions were Day 8 AM measurements, which were performed 24 hours after the final dose. PM IOP measurements were performed ˜5 hours (baseline and Day 1) or ˜4 hours (Day 7) after AM IOP measurements, prior to PM dosing, with at least 15 minutes elapsing between anesthetic application for PM IOP measurements and PM dosing. The final round of slit-lamp examinations was performed on Day 8.

[1] = Group 2, 0.45 mg/eye topical BID, Day 1, AM, OS
[2] = Group 2, 0.45 mg/eye topical BID, Day 1, PM, OD
[3] = Group 2, 0.45 mg/eye topical BID, Day 2, AM, OD
[4] = Group 2, 0.45 mg/eye topical BID, Day 2, AM, OS
[5] = Group 2, 0.45 mg/eye topical BID, Day 3, AM, OD
[6] = Group 2, 0.45 mg/eye topical BID, Day 3, AM, OS
[7] = Group 2, 0.45 mg/eye topical BID, Day 4, AM, OD
[8] = Group 2, 0.45 mg/eye topical BID, Day 4, AM, OS
[9] = Group 2, 0.45 mg/eye topical BID, Day 5, AM, OD
[10] = Group 3, 1.2 mg/eye topical BID, Day 1, AM, OD
[11] = Group 3, 1.2 mg/eye topical BID, Day 1, AM, OS
[12] = Group 3, 1.2 mg/eye topical BID, Day 1, PM, OD
[13] = Group 3, 1.2 mg/eye topical BID, Day 2, AM, OS
[14] = Group 3, 1.2 mg/eye topical BID, Day 3, AM, OD
[15] = Group 3, 1.2 mg/eye topical BID, Day 3, AM, OS
[16] = Group 3, 1.2 mg/eye topical BID, Day 4, AM, OD
[17] = Group 3, 1.2 mg/eye topical BID, Day 4, AM, OS

With COC(=O)N[C@@H](Cc1ccccc1)C(=O)N[C@@H](Cc1ccc(NS(=O)(=O)O)cc1)c1csc(-c2cccs2)n1 [Compound 1 sodium salt] the “Intraocular pressure (IOP), individual animal” value (Group 2, 0.45 mg/eye topical BID, Day 1, AM, OD) was 20.3 and 23.7 and 24.0 and 20.7 and 21.7, the “Intraocular pressure (IOP), group Average” value [1] was 23.3 and the “Intraocular pressure (IOP), individual animal” value [1] was 20.7 and 25.2 and 23.3. The “Intraocular pressure (IOP), group Average” value [2] was 25.5, the “Intraocular pressure (IOP), individual animal” value [2] was 24.8 and 22.0 and the “Intraocular pressure (IOP), individual animal” value (Group 2, 0.45 mg/eye topical BID, Day 1, PM, OS) was 25.3. For the same compound, the “Intraocular pressure (IOP), group Average” value [3] was 21.9, the “Intraocular pressure (IOP), individual animal” value [3] was 22.0 and 22.7 and 25.0 and the “Intraocular pressure (IOP), group Average” value [4] was 22.2. The “Intraocular pressure (IOP), individual animal” value [4] was 22.3 and 24.3, the “Intraocular pressure (IOP), group Average” value [5] was 24.0 and the “Intraocular pressure (IOP), individual animal” value [5] was 25.0 and 24.2 and 26.0 and 23.8. The “Intraocular pressure (IOP), group Average” value [6] was 24.5, the “Intraocular pressure (IOP), individual animal” value [6] was 25.3 and 23.5 and 26.0 and 23.0 and the “Intraocular pressure (IOP), group Average” value [7] was 23.9. The “Intraocular pressure (IOP), individual animal” value [7] was 23.8 and 22.0 and 26.7 and 25.7, the “Intraocular pressure (IOP), group Average” value [8] was 24.3 and the “Intraocular pressure (IOP), individual animal” value [8] was 23.0 and 22.7 and 26.3 and 23.5 and 26.2. For the same compound, the “Intraocular pressure (IOP), group Average” value [9] was 25.2, the “Intraocular pressure (IOP), individual animal” value [9] was 22.8 and 28.0 and 20.7 and 25.7 and the “Intraocular pressure (IOP), individual animal” value (Group 2, 0.45 mg/eye topical BID, Day 5, AM, OS) was 25.0 and 28.0 and 24.2 and 26.3. For the same compound, the “Intraocular pressure (IOP), group Average” value (Group 2, 0.45 mg/eye topical BID, Day 6, AM, OD) was 25.5, the “Intraocular pressure (IOP), group Average” value (Group 2, 0.45 mg/eye topical BID, Day 7, AM, OD) was 23.7 and the “Intraocular pressure (IOP), group Average” value (Group 2, 0.45 mg/eye topical BID, Day 7, AM, OS) was 24.5. The “Intraocular pressure (IOP), group Average” value [10] was 22.0, the “Intraocular pressure (IOP), individual animal” value [10] was 23.2 and 24.0 and 20.2 and the “Intraocular pressure (IOP), group Average” value [11] was 23.2. For the same compound, the “Intraocular pressure (IOP), individual animal” value [11] was 23.8 and 23.0 (2×), the “Intraocular pressure (IOP), group Average” value [12] was 24.1 and the “Intraocular pressure (IOP), individual animal” value [12] was 24.7 and 25.2. For the same compound, the “Intraocular pressure (IOP), individual animal” value (Group 3, 1.2 mg/eye topical BID, Day 1, PM, OS) was 24.5 (2×) and 23.7 and 25.0, the “Intraocular pressure (IOP), individual animal” value (Group 3, 1.2 mg/eye topical BID, Day 2, AM, OD) was 17.5 and 25.5 and the “Intraocular pressure (IOP), group Average” value [13] was 21.2. For the same compound, the “Intraocular pressure (IOP), individual animal” value [13] was 20.2 and 24.0 and 24.5, the “Intraocular pressure (IOP), group Average” value [14] was 20.7 and the “Intraocular pressure (IOP), individual animal” value [14] was 20.0 and 23.0 and 22.2. For the same compound, the “Intraocular pressure (IOP), group Average” value [15] was 21.2, the “Intraocular pressure (IOP), individual animal” value [15] was 20.0 and 22.7 and 23.0 and the “Intraocular pressure (IOP), group Average” value [16] was 22.8. The “Intraocular pressure (IOP), individual animal” value [16] was 23.2 and 24.8 and 22.2, the “Intraocular pressure (IOP), group Average” value [17] was 23.2 and the “Intraocular pressure (IOP), individual animal” value [17] was 23.3 and 24.2 and 24.5 and 22.3. The “Intraocular pressure (IOP), individual animal” value (Group 3, 1.2 mg/eye topical BID, Day 5, AM, OD) was 21.5 and 23.7 and the “Intraocular pressure (IOP), group Average” value (Group 3, 1.2 mg/eye topical BID, Day 5, AM, OS) was 22.0.
